Data: patent US12171230B2, “Herbicidal compositions” (Bayer Aktiengesellschaft, priority 2018, dated 2024)

Key:
Type in all cases: in vivo
[1] = tested on: Poa annua; assay: Post-emergence herbicidal action against Poa annua; conditions: post-emergence
Method: (§1) When the observed efficacies exceed the formal sum total of the values of the tests with individual applications, they also exceed the expected value according to Colby, which is calculated using the formula below and is likewise regarded as an indication of synergism (cf. S. R. Colby; in Weeds 15 (1967) p. 20 to 22): E^C=A+B−([…])
(§2) Here: • A=efficacy of the active compound (A) in % at an application rate of a g a.i./ha; • B=efficacy of the active compound (B) in % at an application rate of b g a.i./ha; • E^C=expected value of the effect of the combination (A)+(B) in % at the combined application rate a+b g a.i./ha.
(§3) Seeds or rhizome pieces of mono- and dicotyledonous weeds are placed in sandy loam in pots, covered with soil and grown in a greenhouse under good growth conditions (temperature, air humidity, water supply). Three weeks after sowing, the test plants were treated at the three-leaf stage with the compositions according to the invention. The compositions according to the invention formulated as spray powders or as emulsion concentrates were sprayed onto the green plant parts in various dosages with an application rate of 300 to 800 l/ha of water (equivalent). After the test plants have been left to stand in the greenhouse under optimal growth conditions for about 3 to 4 weeks, the action of the preparations is scored visually in comparison to untreated controls. The compositions according to the invention also have good post-emergence herbicidal activity against a broad spectrum of economically important gramineous and broadleaf weeds.

[2] = tested on: Matricaria inodora; assay: Post-emergence herbicidal action against Matricaria inodora; conditions: post-emergence, 14 DAT
[3] = tested on: Lolium rigidum; assay: Post-emergence herbicidal action against Lolium rigidum
Excerpt: (§4) The following abbreviations are used in the description and the tables that follow: • g of a.i./ha=grams of active substance (active ingredient) (=100% active compound) per hectare; • The sum total of the effects of the individual applications is reported under E^A; • expected values according to Colby are each reported under E^C.
(§5) The rating period is reported in days after application (DAT).

[4] = tested on: Lolium rigidum (resistant biotype); assay: Post-emergence herbicidal action against Lolium rigidum (resistant biotype)
Excerpt: as §4, §5

[5] = tested on: Phalaris minor; assay: Post-emergence herbicidal action against Phalaris minor
Excerpt: as §4, §5

[6] = tested on: Alopecurus myosuroides; assay: Post-emergence herbicidal action against Alopecurus myosuroides
Excerpt: as §4, §5

[7] = tested on: Bromus sterilis; assay: Post-emergence herbicidal action against Bromus sterilis
Excerpt: as §4, §5

[8] = tested on: Veronica hederifolia; assay: Post-emergence herbicidal action against Veronica hederifolia
Excerpt: as §4, §5

[9] = tested on: Amaranthus palmeri; assay: Post-emergence herbicidal action against Amaranthus palmeri; conditions: Amaranthus palmeri, post-emergence, 504 h, 1.3 g of a.i./ha, post-emergence, block with (B9.10) Saflufenacil; read-out: Herbicidal action 21 DAT [%] against Amaranthus palmeri
Method: as §1, §2, §3

[10] = tested on: Brachiaria platyphylla; assay: Post-emergence herbicidal action against Brachiaria platyphylla; conditions: 4 g of a.i./ha, post-emergence, block with (B9.10) Saflufenacil
Method: as §1, §2, §3

[11] = tested on: Digitaria sanguinalis; assay: Post-emergence herbicidal action against Digitaria sanguinalis; conditions: 12 g of a.i./ha, post-emergence
Method: as §1, §2, §3

[12] = tested on: Pharbitis purpurea; assay: Post-emergence herbicidal action against Pharbitis purpurea; conditions: 1.3 g of a.i./ha, post-emergence
Method: as §1, §2, §3

**Q.** With COc1c(Cl)ccc(-c2cc(N)c(Cl)c(C(=O)O)n2)c1F [(B5.31) Halauxifen] as the compound, how does the “Herbicidal action in [%] 14 DAT against Poa annua L.” value ([1]; 1 g of a.i./ha) read?
**A.** 0%

**Q.** And the “Herbicidal action in [%] 14 DAT against Poa annua L.” value ([1]; 3 g of a.i./ha)?
**A.** 0%

**Q.** What about the “Herbicidal action in [%] 14 DAT against Poa annua L.” value ([1]; 9 g of a.i./ha) of the same compound?
**A.** 5%

**Q.** What about the “Herbicidal action in [%] 28 DAT against Poa annua L.” value ([1]; 1 g of a.i./ha) of the same compound?
**A.** 0%

**Q.** What about the “Herbicidal action in [%] 28 DAT against Poa annua L.” value ([1]; 3 g of a.i./ha) of the same compound?
**A.** 0%

**Q.** And the “Herbicidal action in [%] 28 DAT against Poa annua L.” value ([1]; 9 g of a.i./ha)?
**A.** 0%

**Q.** And the “Herbicidal action in [%] 14 DAT against Matricaria inodora” value ([2]; 1 g of a.i./ha)?
**A.** 30%

**Q.** And the “Herbicidal action in [%] 14 DAT against Matricaria inodora” value ([2]; 3 g of a.i./ha)?
**A.** 40%

**Q.** What about the “Herbicidal action in [%] 14 DAT against Matricaria inodora” value ([2]; 9 g of a.i./ha) of the same compound?
**A.** 60%

**Q.** And the “Herbicidal action in [%] 14 DAT against Lolium rigidum” value ([3]; 1 g of a.i./ha)?
**A.** 0%

**Q.** And the “Herbicidal action in [%] 14 DAT against Lolium rigidum” value ([3]; 3 g of a.i./ha)?
**A.** 0%

**Q.** What about the “Herbicidal action in [%] 14 DAT against Lolium rigidum” value ([3]; 9 g of a.i./ha) of the same compound?
**A.** 5%

**Q.** And the “Herbicidal action in [%] 28 DAT against Lolium rigidum” value ([3]; 1 g of a.i./ha)?
**A.** 0%

**Q.** What about the “Herbicidal action in [%] 28 DAT against Lolium rigidum” value ([3]; 3 g of a.i./ha) of the same compound?
**A.** 0%

**Q.** And the “Herbicidal action in [%] 28 DAT against Lolium rigidum” value ([3]; 9 g of a.i./ha)?
**A.** 0%

**Q.** And the “Herbicidal action in [%] 14 DAT against Lolium rigidum (resistant biotype)” value ([4]; 1 g of a.i./ha)?
**A.** 0%

**Q.** And the “Herbicidal action in [%] 14 DAT against Lolium rigidum (resistant biotype)” value ([4]; 3 g of a.i./ha)?
**A.** 0%

**Q.** And the “Herbicidal action in [%] 14 DAT against Lolium rigidum (resistant biotype)” value ([4]; 9 g of a.i./ha)?
**A.** 5%

**Q.** And the “Herbicidal action in [%] 28 DAT against Lolium rigidum (resistant biotype)” value ([4]; 1 g of a.i./ha)?
**A.** 0%

**Q.** What about the “Herbicidal action in [%] 28 DAT against Lolium rigidum (resistant biotype)” value ([4]; 3 g of a.i./ha) of the same compound?
**A.** 0%

**Q.** And the “Herbicidal action in [%] 28 DAT against Lolium rigidum (resistant biotype)” value ([4]; 9 g of a.i./ha)?
**A.** 10%

**Q.** What about the “Herbicidal action in [%] 14 DAT against Phalaris minor” value ([5]; 1 g of a.i./ha) of the same compound?
**A.** 0%

**Q.** What about the “Herbicidal action in [%] 14 DAT against Phalaris minor” value ([5]; 3 g of a.i./ha) of the same compound?
**A.** 0%

**Q.** And the “Herbicidal action in [%] 14 DAT against Phalaris minor” value ([5]; 9 g of a.i./ha)?
**A.** 5%

**Q.** And the “Herbicidal action in [%] 28 DAT against Phalaris minor” value ([5]; 1 g of a.i./ha)?
**A.** 0%

**Q.** And the “Herbicidal action in [%] 28 DAT against Phalaris minor” value ([5]; 3 g of a.i./ha)?
**A.** 0%

**Q.** And the “Herbicidal action in [%] 28 DAT against Phalaris minor” value ([5]; 9 g of a.i./ha)?
**A.** 5%

**Q.** And the “Herbicidal action in [%] 14 DAT against Alopecurus myosuroides” value ([6]; 1 g of a.i./ha)?
**A.** 0%

**Q.** What about the “Herbicidal action in [%] 14 DAT against Alopecurus myosuroides” value ([6]; 3 g of a.i./ha) of the same compound?
**A.** 0%

**Q.** What about the “Herbicidal action in [%] 14 DAT against Alopecurus myosuroides” value ([6]; 9 g of a.i./ha) of the same compound?
**A.** 5%

**Q.** And the “Herbicidal action in [%] 28 DAT against Alopecurus myosuroides” value ([6]; 1 g of a.i./ha)?
**A.** 0%

**Q.** And the “Herbicidal action in [%] 28 DAT against Alopecurus myosuroides” value ([6]; 3 g of a.i./ha)?
**A.** 0%

**Q.** What about the “Herbicidal action in [%] 28 DAT against Alopecurus myosuroides” value ([6]; 9 g of a.i./ha) of the same compound?
**A.** 0%

**Q.** What about the “Herbicidal action in [%] 14 DAT against Bromus sterilis” value ([7]; 1 g of a.i./ha) of the same compound?
**A.** 0%

**Q.** What about the “Herbicidal action in [%] 14 DAT against Bromus sterilis” value ([7]; 3 g of a.i./ha) of the same compound?
**A.** 10%

**Q.** What about the “Herbicidal action in [%] 14 DAT against Bromus sterilis” value ([7]; 9 g of a.i./ha) of the same compound?
**A.** 30%

**Q.** What about the “Herbicidal action in [%] 28 DAT against Bromus sterilis” value ([7]; 1 g of a.i./ha) of the same compound?
**A.** 0%

**Q.** What about the “Herbicidal action in [%] 28 DAT against Bromus sterilis” value ([7]; 3 g of a.i./ha) of the same compound?
**A.** 0%

**Q.** What about the “Herbicidal action in [%] 28 DAT against Bromus sterilis” value ([7]; 9 g of a.i./ha) of the same compound?
**A.** 20%

**Q.** And the “Herbicidal action in [%] 14 DAT against Veronica hederifolia” value ([8]; 3 g of a.i./ha)?
**A.** 60%

**Q.** What about the “Herbicidal action in [%] 14 DAT against Veronica hederifolia” value ([8]; 9 g of a.i./ha) of the same compound?
**A.** 60%

**Q.** CC(C)N(C)S(=O)(=O)NC(=O)c1cc(-n2c(=O)cc(C(F)(F)F)n(C)c2=O)c(F)cc1Cl [(B9.10) Saflufenacil, saflufenacil, reference compound] was tested. Which pest or weed control at 1.3 g/ha [9] did it give?
**A.** 70%

**Q.** And the “Herbicidal action 21 DAT [%] against Brachiaria platyphylla” value [10]?
**A.** 25%

**Q.** What about the “Herbicidal action 21 DAT [%] against Digitaria sanguinalis” value [11] of the same compound?
**A.** 50%

**Q.** And the “Herbicidal action 21 DAT [%] against Pharbitis purpurea” value [12]?
**A.** 30%
